Test results as given in US20210002725A1, “METHODS FOR THE DIAGNOSIS OF METABOLIC DISORDERS USING EPIMETABOLIC SHIFTERS, MULTIDIMENSIONAL INTRACELLULAR MOLECULES, OR ENVIRONMENTAL INFLUENCES” (Berg LLC, priority 2009, published 2021).
“Also recorded” adds a separate entry of the source.

Experiments:
ATP Citrate Lyase (ACL) = assay: Western blot of ATP Citrate Lyase levels in cells treated with Coenzyme Q10; type: cell-based, human; settings: for ATP Citrate Lysase band Normalized Intensity: 48 h
Procedure: The whole cell pellets were resuspended one at a time in 1 mL of C7 buffer and transferred to labeled 15 mL tubes. The samples were then sonicated in the cold room on ice using 6 sonic pulses with the setting at #14. The samples were spun for a short time to 2500 g after sonication and the samples transferred to 2 ml tubes. The pH was verified of each sample (pH should be 9.0) using the foam remaining in the […] sample tubes.
After transfer each of the blots was placed in between 2 Whatman Filter papers and dried for 15-20 minutes. After drying the blots were labeled with the date, the type of samples and either blot 1 or blot 2 using a HB pencil. The molecular weight markers were outlined with the pencil and with single lines for the blue and a doublet for the colored markers. The blots were activated with methanol for 5 seconds, washed with water for 5 minutes, and TBST for 15 minutes. The blots were blocked for 1 hour with 5% blocking reagent in TBS-T at room temperature and then washed 3 times with TBS-T (1×-15′; 2×5′ each). Blot 1 was probed with the primary antibody for IDH1 (Cell Signaling #3997) in TBST with 5% BSA (at 1:1000 dilutions) and blot 2 with the rabbit polyclonal antibody for ATP Citrate Lyase in 5% BSA (Cell Signaling #4332) at 1:1000 dilution by incubation overnight at 4 deg C. with shaking. After the overnight incubation with primary antibodies, the blots were washed 3 times with TBS-T (1×-15′; 2×5′ each) and probed with the secondary antibody (antirabbit; 1:10,000 dilution) for 1 hon the orbital tilting shaker at room temperature. After 1 h of incubation with secondary antibodies, the blots were washed 3 times with TBS-T (1×-15′; 2×5′ each) and then incubated with ECF reagent for 5 mins and then each blot scanned with 5100 Fuji Laser scanner at 25 uM resolution, 16 bit, green laser, at 400V and at 500 V.
The samples were processed and run on a 4-12% Bis-Tris Novex NuPAGE gel as described above. The gels were run, transferred and stained essentially as described above.
The Isocitrate dehydrogenase blot was stripped by incubating for 30 minutes with methanol, followed by two 10 minute washes with TBS-T, then 30 minutes of incubation with stripping buffer at 50 deg C., and followed by two washes with 100 ml or more of TBS-T for 30′ each. The blot was scanned in laser scanner to check for complete stripping. The blot was activated with methanol for 5 seconds, washed with water for 5 minutes, and TBST for 15 minutes. The blot was blocked for 1 hour with 5% blocking reagent in TBS-T at room temperature and then washed 3 times with TBS-T (1×-15′; 2×5′ each). This was then probed with the rabbit polyclonal antibody for ATP Citrate Lyase in 5% BSA (Cell Signaling #4332) at 1:1000 dilution overnight at 4 deg C. with shaking. After the overnight incubation with primary antibody for ATP Citrate Lyase, the membrane was washed 3 times with TBS-T (1×-15′; 2×5′ each) and probed with the secondary antibody (antirabbit; 1:10,000 dilution) for 1 h on the orbital tilting shaker at room temperature. After 1 h of incubation with secondary antibodies, the blot was washed 3 times with TBS-T (1×-15′; 2×5′ each) and then incubated with ECF reagent for 5 minutes and then each blot scanned with 5100 Fuji Laser scanner at 25 uM resolution, 16 bit, green laser, at 400V and at 500 V.
In this experiment (western blot experiment 3), and in all of the experiments described below in this Example (i.e., western blot experiments 4 through 9), the cells were additionally treated with either 5 mM glucose (“5G”) or 22 mM glucose (“22G”). The samples derived from the cells were processed and run on a 4-12% Bis-Tris Novex NuPAGE gel as described above. The gels were run, transferred and stained essentially as described above.
The levels of IDH1, ATP citrate lyase and actin levels were determined by probing the blots with primary antibodies for IDH1, ATP citrate lyase and actin, essentially as described above.

[1] = system: HepG2 (liver cancer) cells; assay: Real-time PCR Angiogenesis Array; type: cell-based
Procedure: The treatment was initiated on 1×10^5 cells per well, following the procedure utilized in the PaCa2 cells (above Examples 9-11). However, the total amount of RNA that was extracted from these samples was lower than expected. Reverse transcription is normally done using 1 μg of total RNA (determined by measurement at 260 nm).

SCC cells = settings: 100 μM Q10; 6 and/or 24 hr

Procedure for SK-MEL-28 mitochondria: The cells were harvested by washing and scraping the cells from T-160 flasks (4 for each time point). The cells were collected by centrifugation and the pellets flash frozen and stored at −80° C. The cell pellets were resuspended and ruptured using a 2 mL Dounce homogenizer. The reagents and method were obtained from a Mitochondria Isolation Kit for Cultured Cells (MitoSciences, Cat #MS852). The resultant mitochondria samples were divided into 75 μL aliquots (4-5 aliquots per sample) and stored at −80° C.
The samples were subjected to 2-D electrophoresis (in duplicate). Analysis of 525 protein spots in the comparative study was performed, comparing the control samples against the other time point samples (FIG. 11).

COC1=C(OC)C(=O)C(C/C=C(\C)CC/C=C(\C)CC/C=C(\C)CC/C=C(\C)CC/C=C(\C)CC/C=C(\C)CC/C=C(\C)CC/C=C(\C)CC/C=C(\C)CCC=C(C)C)=C(C)C1=O [Q10, Coenzyme Q10]
Response at later time points (19, 48 hr) (SK-MEL-28 mitochondria; 100 μM Q10): drops more for 19; also recorded: back to normal at 48; also recorded: Up at 19 and 48 hr; also recorded: Up only at 19 hr; also recorded: drop to low levels | Response (direction) at 6 hr (SK-MEL-28 mitochondria; 100 μM Q10, 6 hr): Down and Up | ATP Citrate Lysase band Normalized Intensity (ATP Citrate Lyase (ACL); HASMC (Table 34), 5 g, 50 μM): 23341 | ATP Citrate Lysase band Normalized Intensity (ATP Citrate Lyase (ACL); HASMC (Table 34), 5 g, 100 μM): 25544 | ATP Citrate Lysase band Normalized Intensity (ATP Citrate Lyase (ACL); HASMC (Table 34), 22 G, 50 μM): 21439 | ATP Citrate Lysase band Normalized Intensity (ATP Citrate Lyase (ACL); HASMC (Table 34), 22 G, 100 μM): 19491 | ATP Citrate Lysase band Normalized Intensity (ATP Citrate Lyase (ACL); HASMC (Table 35), 5 g, 50 μM): 12056 | ATP Citrate Lysase band Normalized Intensity (ATP Citrate Lyase (ACL); HASMC (Table 35), 5 g, 100 μM): 15265 | ATP Citrate Lysase band Normalized Intensity (ATP Citrate Lyase (ACL); HASMC (Table 35), 22 G, 50 μM): 15857 | ATP Citrate Lysase band Normalized Intensity (ATP Citrate Lyase (ACL); HASMC (Table 35), 22 G, 100 μM): 13892 | ATPCL Average Normalized Intensity (ATP Citrate Lyase (ACL); HDFa, 50 μM): ~7500 | ATPCL Average Normalized Intensity (ATP Citrate Lyase (ACL); HDFa, 100 μM): ~25000 | ATP Citrate Lysase band Normalized Intensity (ATP Citrate Lyase (ACL); HepG2, 5 g, 50 μM): 24106 | ATP Citrate Lysase band Normalized Intensity (ATP Citrate Lyase (ACL); HepG2, 5 g, 100 μM): 22463 | ATP Citrate Lysase band Normalized Intensity (ATP Citrate Lyase (ACL); HepG2, 22 G, 50 μM): 31235 | ATP Citrate Lysase band Normalized Intensity (ATP Citrate Lyase (ACL); HepG2, 22 G, 100 μM): 50588 | ATPCL Average Normalized Intensity (ATP Citrate Lyase (ACL); MCF-7, 50 μM): ~7500 | ATP Citrate Lysase band Normalized Intensity (ATP Citrate Lyase (ACL); PACA2, 5 g, 50 μM): 8027 | ATP Citrate Lysase band Normalized Intensity (ATP Citrate Lyase (ACL); PACA2, 5 g, 100 μM): 4942 | ATP Citrate Lysase band Normalized Intensity (ATP Citrate Lyase (ACL); PACA2, 22 G, 50 μM): 9537 | ATP Citrate Lysase band Normalized Intensity (ATP Citrate Lyase (ACL); PACA2, 22 G, 100 μM): 14901 | ANGPTL3 upregulation over control ([1]; 100 μM Q10, 16 hours): approximately 5.5 fold | ANGPTL4 upregulation over control ([1]; 100 μM Q10, 16 hours): ~3 fold | CXCL1 upregulation over control ([1]; 100 μM Q10, 16 hours): ~3 fold | CXCL3 upregulation over control ([1]; 100 μM Q10, 16 hours): ~3.2 fold | CXCL5 upregulation over control ([1]; 100 μM Q10, 16 hours): ~3 fold | ENG upregulation over control ([1]; 100 μM Q10, 16 hours): ~3 fold | ID3 downregulation over control ([1]; 100 μM Q10, 16 hours): approximately 5 fold | MMP2 upregulation over control ([1]; 100 μM Q10, 16 hours): approximately 1 fold | TIMP3 upregulation over control ([1]; 100 μM Q10, 16 hours): ~6.5 fold | ANGPTL3 upregulation over control ([1]; 100 μM Q10, 48 hours): approximately 3.5 fold | ANGPTL4 downregulation over control ([1]; 100 μM Q10, 48 hours): approximately 1 fold | CXCL1 upregulation over control ([1]; 100 μM Q10, 48 hours): ~1.5 fold | CXCL3 upregulation over control ([1]; 100 μM Q10, 48 hours): ~3.175 fold | CXCL5 downregulation over control ([1]; 100 μM Q10, 48 hours): approximately 1 fold | ENG upregulation over control ([1]; 100 μM Q10, 48 hours): ~2 fold | ID3 downregulation over control ([1]; 100 μM Q10, 48 hours): ~2 fold | MMP2 downregulation over control ([1]; 100 μM Q10, 48 hours): ~18 fold | TIMP3 upregulation over control ([1]; 100 μM Q10, 48 hours): ~3 fold | Response (direction of protein spot change) (SCC cells): Increase; also recorded: hr, decrease
